Data as given in patent US6552196B2, “Quinolone carboxylic acid derivatives” (Dong Wha Pharmaceutical Industrial Co., Ltd., priority 1997, dated 2003).

Assays:
Test in all cases: In vitro antibacterial activity (MIC), agar dilution
Assay type in all cases: cell-based
[1] = system: Enterobacter clocae 1321E; details: 2-fold agar dilution, Muller-Hinton agar, 18 hours at 37° C., read-out: minimum inhibitory concentration (MIC)
Procedure: (§1) 10^7 cfu/ml of bacteria were inoculated and cultured for 18 hours at 37° C. and then the antibacterial activities were measured. For the methicillin resistant strains the activities were measured after 48 hours of cultivation at 30° C. Hoechst Standard strains were used for the testings.

Enterobacter clocae P99 = details: 2-fold agar dilution, Muller-Hinton agar, 18 hours at 37° C., read-out: minimum inhibitory concentration (MIC)
Procedure: as §1

Esherichia coli 078 = details: 2-fold agar dilution, Muller-Hinton agar, 18 hours at 37° C., read-out: minimum inhibitory concentration (MIC)
Procedure: as §1

Esherichia coli 1507E = details: 2-fold agar dilution, Muller-Hinton agar, 18 hours at 37° C., read-out: minimum inhibitory concentration (MIC)
Procedure: as §1

Esherichia coli DC0 = details: 2-fold agar dilution, Muller-Hinton agar, 18 hours at 37° C., read-out: minimum inhibitory concentration (MIC)
Procedure: as §1

Esherichia coli DC2 = details: 2-fold agar dilution, Muller-Hinton agar, 18 hours at 37° C., read-out: minimum inhibitory concentration (MIC)
Procedure: as §1

Esherichia coli TEM = details: 2-fold agar dilution, Muller-Hinton agar, 18 hours at 37° C., read-out: minimum inhibitory concentration (MIC)
Procedure: as §1

[2] = system: Klebsiella aerogenes 1522E; details: 2-fold agar dilution, Muller-Hinton agar, 18 hours at 37° C., read-out: minimum inhibitory concentration (MIC)
Procedure: as §1

Klebsiella oxytoca 1082E = details: 2-fold agar dilution, Muller-Hinton agar, 18 hours at 37° C., read-out: minimum inhibitory concentration (MIC)
Procedure: as §1

[3] = system: Pseudomonas aeruginosa 1592E; details: 2-fold agar dilution, Muller-Hinton agar, 18 hours at 37° C., read-out: minimum inhibitory concentration (MIC)
Procedure: as §1

[4] = system: Pseudomonas aeruginosa 1771M; details: Pseudomonas aeruginosa, 1771M, 18 h, read-out: minimum inhibitory concentration (MIC)
Procedure: as §1

[5] = system: Pseudomonas aeruginosa 1771; details: 2-fold agar dilution, Muller-Hinton agar, 18 hours at 37° C., read-out: minimum inhibitory concentration (MIC)
Procedure: as §1

[6] = system: Pseudomonas aeruginosa 9027; details: 2-fold agar dilution, Muller-Hinton agar, 18 hours at 37° C., read-out: minimum inhibitory concentration (MIC)
Procedure: as §1

Salmonella typhimurium = details: Salmonella enterica, 2-fold agar dilution, Muller-Hinton agar, 18 hours at 37° C., read-out: minimum inhibitory concentration (MIC)
Procedure: as §1

[7] = system: Staphylococcus aureus 285; details: 2-fold agar dilution, Muller-Hinton agar, 18 hours at 37° C., read-out: minimum inhibitory concentration (MIC)
Procedure: as §1

[8] = system: Staphylococcus aureus 503; details: 2-fold agar dilution, Muller-Hinton agar, 18 hours at 37° C., read-out: minimum inhibitory concentration (MIC)
Procedure: as §1

[9] = system: Staphylococcus aureus SG511; details: 2-fold agar dilution, Muller-Hinton agar, 18 hours at 37° C., read-out: minimum inhibitory concentration (MIC)
Procedure: as §1

[10] = system: Streptococcus faecium MD 8b; details: Enterococcus faecium, MD8B, 2-fold agar dilution, Muller-Hinton agar, 18 hours at 37° C., read-out: minimum inhibitory concentration (MIC)
Procedure: as §1

[11] = system: Streptococcus pyogens 308A; details: 2-fold agar dilution, Muller-Hinton agar, 18 hours at 37° C., read-out: minimum inhibitory concentration (MIC)
Procedure: as §1

[12] = system: Streptococcus pyogens 77A; details: 2-fold agar dilution, Muller-Hinton agar, 18 hours at 37° C., read-out: minimum inhibitory concentration (MIC)
Procedure: as §1

Question: `CON=C1CN(c2cc3c(cc2F)c(=O)c(C(=O)O)cn3-c2ccc(F)cc2F)CC12CNC2.CS(=O)(=O)O.CS(=O)(=O)O` [Example 6, 1-(2,4-Difluorophenyl)-6-fluoro-7-[8-(methoxyimino)-2,6-diazaspiro[3,4]oct-6-yl]-4-oxo-1,4-dihydro-3-quinolinecarboxylic acid dimethanesulfonate] was tested. Which MIC [1] did it give?
Answer: 0.098 µg/mL

Question: And the MIC (Enterobacter clocae P99)?
Answer: 0.098 µg/mL

Question: And the MIC (Esherichia coli 078)?
Answer: 0.049 µg/mL

Question: What about the MIC (Esherichia coli 1507E) of the same molecule?
Answer: 0.195 µg/mL

Question: What about the MIC (Esherichia coli DC0) of the same molecule?
Answer: 0.781 µg/mL

Question: What about the MIC (Esherichia coli DC2) of the same molecule?
Answer: 0.098 µg/mL

Question: And the MIC (Esherichia coli TEM)?
Answer: 0.195 µg/mL

Question: What about the MIC [2] of the same molecule?
Answer: 0.391 µg/mL

Question: What about the MIC (Klebsiella oxytoca 1082E) of the same molecule?
Answer: 0.013 µg/mL

Question: And the MIC [3]?
Answer: 1.56 µg/mL

Question: And the MIC [4]?
Answer: 1.56 µg/mL

Question: What about the MIC [5] of the same molecule?
Answer: 1.56 µg/mL

Question: And the MIC [6]?
Answer: 3.12 µg/mL

Question: What about the MIC (Salmonella typhimurium) of the same molecule?
Answer: 0.049 µg/mL

Question: And the MIC [7]?
Answer: 0.098 µg/mL

Question: And the MIC [8]?
Answer: 0.049 µg/mL

Question: And the MIC [9]?
Answer: 0.049 µg/mL

Question: And the MIC [10]?
Answer: 0.195 µg/mL

Question: And the MIC [11]?
Answer: 0.195 µg/mL

Question: And the MIC [12]?
Answer: 0.013 µg/mL
